These results are taken from paper PMC12392461, “Beyond Estrogenicity: A Comparative Assessment of Bisphenol A and Its Alternatives in In Vitro Assays Questions Safety of Replacements” (Environmental Science & Technology, 2025).

Series [1] concerns Antioxidant response element. In words: MitoOxTox: oxidative stress response in AREc32. The following applies: for logEC10 / EC10, linear: Bioassay ARE, dosing range all; for logEC10: log-logistic model fit; for EC10, linear: linear model fit. The source says:
(§1) All bioassay media components and the ERα-UAS-bla GripTite and PPARγ-UAS-bla cells were obtained from Thermo Fisher Scientific (Waltham, MA, USA). AREc32 reporter gene cells based on MCF7 were provided by C. Roland Wolf (Cancer Research UK); AhR CALUX cells (H4L7.5c2 derived from H4IIe) were provided by Michael Denison (UC Davis, USA); and SH-SY5Y cells were purchased from Sigma-Aldrich.
(§2) Cell culture conditions and bioassay protocols including response detection are provided in Text S2.1–2.4 and Table S3. − Cell viability was determined from cell confluency using an IncuCyte S3 Live-Cell Analysis System (Sartorius AG, Essen, Germany) before and after exposure, except for SH-SY5Y cells (live–dead staining with Nuclear Green LcS1 and propidium iodide, Abcam, UK). For metabolic activation experiments, cell viability was assessed using the ToxBLAzer DualScreen Kit (Thermo Fisher Scientific) to capture the remaining toxicity in ERα-UAS-bla GripTite after treatment with the aCYP catalyst (details in Text S2.4).
(§3) For ARE, the concentration that triggered an induction ratio of 1.5 (ECIR1.5) was used as the benchmark value, as detailed in Text S2.5. IC10 values also served as a threshold for data analysis in all assays; only concentrations below IC10 were considered when deriving EC10 or ECIR1.5. […]
(§4) S2: Cell culture and bioassays
(§5) S2.1: Cell Culturing Conditions
(§6) All suppliers and sources are given in detail in SI-Excel S3. The bioassay media for the different assays were prepared as follows: Assay medium for ER alpha-UAS-bla GripTite (ERα) and PPAR gamma-UAS-bla 293H (PPARγ) was prepared with 98% Opti-MEM, supplemented with 2% charcoal-stripped FBS, and 100 U/mL penicillin-streptomycin. MitoOxTox and AhR assay medium was comprised of 90% DMEM with GlutaMAX, supplemented with 10% FBS, and 100 U/mL penicillin-streptomycin. Neurotoxicity assay medium consisted of the neurobasal […]
(§7) (1 picture or pasted object on this page, not shown here) […]
(§8) medium, supplemented with 2% B-27 Supplement and 2 mM GlutaMAX Supplement. SH - SY5Y cells were differentiated with 10 µM all-trans retinoic acid prior to the assay.
(§9) S2.2: Cell Seeding and Incubation. For all bioassays, cell suspensions in the respective assay medium were dispensed into each well of 384-well plates using a MultiFlo Dispenser (Biotek, (now Agilent), Winooski, VT, U.S.). After seeding, the plates were incubated at 37° C and 5% CO₂ for […]. The final cell densities and plate types were as follows: Black poly-D-lysine coated 384-well plates (Product No. 354663, Corning Inc., NYC, U.S.) were used for PPARγ:
(§10) 6500 cells/well, ERα: 5000 cells/well. White 384-well plates with a clear bottom (Product No.
(§11) 781098, Greiner, Kremsmünster, Austria) were utilized for the MitoOxTox assay: 2650

Series [2] relates to SH-SY5Y cells. In words: cells. The following applies: for EC10: Homo sapiens, SH-SY5Y; for Specificity ratio (SRbaseline) SRNOI: against baseline cytotoxicity; for Relative effect potency REPNOI: relative to BPA; for EC10, linear: NOI bioassay, dosing range all, linear model; for Specificity ratio (SRcytotoxicity) SRNOI: against experimental cytotoxicity.
Description: as §1, §2, §3, §4, §5, §6, §7, §8, §9, §10, §11

In series [3] the test system is ERα-UAS-bla GripTite cells. The following applies: for TKcytotoxicity: TKcytotoxicity-Ratio. The method, then: as §2, with “S2.4). […]” for “S2.4).”
The TK-Ratio method was used to evaluate the impact of abiotic CYP oxidation on the potency of tested compounds. […]
For experiments with the preceding aCYP activation, ERα cell viability was additionally calculated from the readout of the ToxBLAzer reagent. The ToxBLAzer assay was conducted following the manufacturer's instructions (Thermo Fisher, Waltham, MA, U.S.).13 Fluorescence intensity was recorded at the start of the assay ( Fwavelength(0h)) and after a 2-hour incubation at […]
eq. S11 for normalization.
Cell viability = F665nm(2h, sample)-F665nm(0h, average cell-free) (S11) F665nm(2h, average unexposed)-F665nm(0h, average cell-free) […]
the specific endpoint to avoid artifacts from cytotoxicity burst. 15
S2.5: Concentration-response curves (CRCs)
To avoid bias from cytotoxicity burst at higher concentrations, all concentrations exceeding the IC10 for cytotoxicity were excluded in the CRC modeling of effects but otherwise cytotoxicity and effects were fitted with the same model equations (response stands for cytotoxicity or effect). For ERα, AhR, ARE and PPARγ preferably a linear model was fitted to the linear portion of CRC up to maximum 30% effect (eq. S12),16 but in some cases it was necessary to choose a sigmoidal log-concentration-response model, specifically a log-logistic model (eq. S13), to derive effect concentrations and cytotoxicity. […]
This was done using the
AutomatedBioassayScreening19 published by Braun et al.,20 which also included an algorithm to choose the best model between eq. S12 and eq. S13.
Response (%) = slope × C (S12) […]
logEC =logEC − 1 ∙log (max−min − 100%) (S14)

[4] abbreviates: Arec32, read-out: EC10, linear transformed.
Setting [5] is: read-out: EC10, linear transformed.

Read-outs that look alike come from different tables or passages of the source.
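For Relative effect potency REPNOI in this document: EC10 of BPA divided by EC10 of the test compound so values above 1 mean more potent.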
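For Specificity ratio (SRbaseline) SRNOI in this document: ratio of predicted baseline cytotoxicity IC10 to the neurite outgrowth inhibition EC10.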

Take `O=S(=O)(c1ccc(O)cc1)c1ccc(OCc2ccccc2)cc1` [BPS-MPE, 4-[4-(benzyloxy)benzenesulfonyl]phenol]: the EC10 in series [1] (Arec32, read-out: EC10, linear) is 55.7 µM; in series [1] (setting [4]) it was 133 µM; in series [2] (read-out: EC10, NOI), 0.000247 M; in series [2] (read-out: EC10, NOI (M)), 0.000247 M; in series [2] (read-out: EC10, linear), 0.000638 M; in series [2] (setting [5]), 0.000247 M. In addition, the EC10 in series [2] (read-out: logEC10) was 0.000245 M. The logEC10 entry in series [1] was “no effect”. Also, the “Specificity ratio (SRbaseline) SRNOI” value in series [2] came to 0.11. Also, the “Relative effect potency REPNOI” value in series [2] was 0.21. In addition, in series [3] (Table S10), the TKcytotoxicity is on record as 0.45.

Consider `Cc1ccc(S(=O)(=O)NC(=O)Nc2ccc(Cc3ccc(NC(=O)NS(=O)(=O)c4ccc(C)cc4)cc3)cc2)cc1` [BTUM, 4,4'-Bis(p-tolylsulfonylureido)diphenylmethane], for which the “EC10, linear” value in series [1] and in series [2] was “no effect” each time. Further, the logEC10 entry in series [1] is listed as “no effect”. For the same molecule, the EC10 in series [2] (read-out: EC10, NOI) was 6.48e-05 M; in series [2] (read-out: EC10, NOI (M)), 6.48e-05 M; in series [2] (setting [5]), 6.48e-05 M; in series [2] (read-out: logEC10), 6.46e-05 M. Besides, the “Specificity ratio (SRbaseline) SRNOI” value in series [2] came to 1.03. The “Relative effect potency REPNOI” value in series [2] is on record as 0.78. Moreover, in series [3] (Table S10, cytotoxicity from ToxBLazer data, without simultaneous cparent measurement), the “IC10, before oxidation” value was “no cytotoxicity”. In addition, the TKcytotoxicity in series [3] (Table S11) is reported as 2.25.

As for `Cc1ccc(S(=O)(=O)NC(=O)Nc2cccc(OS(=O)(=O)c3ccc(C)cc3)c2)cc1` [Pergafast, N-(p-toluenesulfonyl)-N'-(3-(p-toluenesulfonyloxy)phenyl)urea], the “EC10, linear” value in series [1] is “no effect”. For the same molecule, in series [1], the logEC10 entry is recorded as “no effect”. Further, the EC10 in series [2] (read-out: EC10, NOI) was 1.25e-05 M; in series [2] (read-out: EC10, NOI (M)) it was 1.25e-05 M; in series [2] (read-out: EC10, linear), 1.25e-05 M; in series [2] (setting [5]), 1.52e-05 M; in series [2] (read-out: logEC10) it was 1.51e-05 M. Moreover, the “Specificity ratio (SRbaseline) SRNOI” value in series [2] is recorded as 8.80. In addition, the “Specificity ratio (SRcytotoxicity) SRNOI” value in series [2] worked out at 3.95. In addition, in series [2], the “Relative effect potency REPNOI” value is given as 4.06. Besides, the TKcytotoxicity in series [3] (Table S10) came out at 0.45.

Consider `CC(C)Oc1ccc(S(=O)(=O)c2ccc(O)cc2)cc1` [D8, 4-((4-Isopropoxyphenyl)sulfonyl)phenol], for which the EC10 in series [1] (Arec32, read-out: EC10, linear) was 1080 µM; in series [1] (setting [4]), 932 µM; in series [1] (Arec32, read-out: logEC10), 1230 µM; in series [2] (read-out: EC10, NOI), 0.000191 M; in series [2] (read-out: EC10, NOI (M)), 0.000191 M; in series [2] (read-out: EC10, linear) it was 0.000353 M. Besides, the EC10 in series [2] (setting [5]) is 0.000186 M; in series [2] (read-out: logEC10) it was 0.000191 M. In addition, in series [1] (against baseline cytotoxicity), the “Specificity ratio (SRbaseline) SRARE” value is 0.11. Further, the “Specificity ratio (SRcytotoxicity) SRARE” value in series [1] (against experimental cytotoxicity) is listed as 1.77. For the same molecule, the “ECIR1.5, ARE” value in series [1] (effect, induction ratio 1.5) was 1.22 mM. In addition, the “ECIR1.5, ARE (M)” value in series [1] (induction ratio 1.5) was 1.22 × 10^–3 M. Moreover, the “log(1/EC10) AREc32” value in series [1] (input of the ToxPi score, values up to 1.00) is given as 0.62. Besides, the “SR (ARE)” value in series [1] (specificity ratio) is < 10. The “Specificity ratio (SRbaseline) SRNOI” value in series [2] is recorded as 0.56. Further, the “Specificity ratio (SRcytotoxicity) SRNOI” value in series [2] amounted to 2.56. In addition, the “Relative effect potency REPNOI” value in series [2] is on record as 0.27. Further, in series [3] (Table S10), the TKcytotoxicity is recorded as 0.94.

For `CC(C)(c1cc(Cl)c(O)c(Cl)c1)c1cc(Cl)c(O)c(Cl)c1` [TCBPA, 2,2',6,6'-Tetrachlorobisphenol A], the “EC10, linear” value in series [1] is reported as “no effect”; in series [2] it was “masked by cytotoxicity”. For the same molecule, the logEC10 result in series [1] is on record as “no effect”. Also, the EC10 in series [2] (read-out: EC10, NOI) was 0.000322 M; in series [2] (read-out: EC10, NOI (M)), 0.000322 M; in series [2] (setting [5]), 0.000322 M; in series [2] (read-out: logEC10) it was 0.000324 M. The TKcytotoxicity in series [3] (Table S10) came to 0.85; in series [3] (Table S11), 0.40.

For the molecule `CCC(C)(c1ccc(O)cc1)c1ccc(O)cc1` [BPB, 4,4'-(Butane-2,2-diyl)diphenol], the “EC10, linear” value in series [1] is recorded as “no effect”. The logEC10 entry in series [1] is given as “no effect”. Besides, the EC10 in series [2] (read-out: EC10, NOI) is 2.8e-05 M; in series [2] (read-out: EC10, NOI (M)), 2.8e-05 M; in series [2] (read-out: EC10, linear) it was 4.03e-05 M; in series [2] (setting [5]) it was 3.89e-05 M; in series [2] (read-out: logEC10), 2.82e-05 M. Besides, the “Specificity ratio (SRbaseline) SRNOI” value in series [2] is 0.59. The “Specificity ratio (SRcytotoxicity) SRNOI” value in series [2] is on record as 5.98. In addition, the “Relative effect potency REPNOI” value in series [2] was found to be 1.81. In series [3] (Table S10), the TKcytotoxicity is given as 0.24.
